Experimental data reported in ChEMBL document CHEMBL3864155, “Dihydrostilbenes and diarylpropanes: Synthesis and in vitro pharmacological evaluation as potent nitric oxide production inhibition agents” (Bioorg Med Chem Lett, 2016).

Legend:
[1] = Antiinflammatory activity in mouse RAW264.7 cells assessed as inhibition of LPS-induced nitric oxide production at 50 to 100 uM after 18 hrs by Griess assay relative to control; format: functional
[2] = Cytotoxicity against mouse RAW264.7 cells assessed as cell proliferation rate at 50 uM after 24 hrs by MTS assay relative to control; format: toxicity; settings: read-out: Activity
RAW264.7 [3] = assay: Effect on LPS-induced iNOS expression in mouse RAW264.7 cells at 10 uM after 18 hrs by Western blot method relative to LPS; format: functional
RAW264.7 [4] = assay: Antiinflammatory activity in mouse RAW264.7 cells assessed as inhibition of LPS-induced nitric oxide production at 1 to 10 uM after 18 hrs by Griess assay; format: functional, cell-based
[5] = Cytotoxicity against mouse RAW264.7 cells assessed as decrease in cell proliferation rate after 24 hrs by MTS assay; format: toxicity
[6] = Antiinflammatory activity in mouse RAW264.7 cells assessed as inhibition of LPS-induced nitric oxide production at 10 uM after 18 hrs by Griess assay relative to control; format: functional; settings: RAW264.7, 18 h
[7] = Antiinflammatory activity in mouse RAW264.7 cells assessed as inhibition of LPS-induced nitric oxide production at 1 uM after 18 hrs by Griess assay relative to control; format: functional; settings: RAW264.7, 18 h
[8] = Cytotoxicity against mouse RAW264.7 cells assessed as cell proliferation rate at 1 uM after 24 hrs by MTS assay relative to control; format: toxicity; settings: read-out: Activity
[9] = Cytotoxicity against mouse RAW264.7 cells assessed as cell proliferation rate at 10 uM after 24 hrs by MTS assay relative to control; format: toxicity; settings: read-out: Activity
[10] = Cytotoxicity against mouse RAW264.7 cells assessed as cell proliferation rate at 100 uM after 24 hrs by MTS assay relative to control; format: toxicity; settings: read-out: Activity

In the case of `COc1cc(CCc2cc(OC)c(O)c(OC)c2)ccc1O` [MOSCATILIN], the “inhibition (INH)” value [1] is reported as over 80%, the viability at 24 h, 50 µM [2] is reported as 47% and the “fold change (FC)” value (RAW264.7 [3]) is reported as 0.93. For the same compound, the inhibition (RAW264.7 [4]) was “Dose-dependent effect”, the IC50 at 24 h [5] was 4.4 µM and the inhibition at 10 µM [6] was 78.4%. It also gave an inhibition at 1 µM [7] of 7.4%, a viability at 24 h, 1 µM [8] of 143% and a viability at 24 h, 10 µM [9] of 52.9%. For the same compound, the viability at 24 h, 100 µM [10] was 59.6%.

For `COc1ccc(CCc2ccc(O)c(O)c2O)cc1OC`, the “inhibition (INH)” value [1] was over 80%, the viability at 24 h, 50 µM [2] was 128% and the “fold change (FC)” value (RAW264.7 [3]) was 0.92. For the same compound, the inhibition (RAW264.7 [4]) was “Dose-dependent effect”, the IC50 at 24 h [5] was 6.02 µM and the inhibition at 10 µM [6] was 47%. For the same compound, the inhibition at 1 µM [7] was 42.7%, the viability at 24 h, 1 µM [8] was 114% and the viability at 24 h, 10 µM [9] was 114%. The viability at 24 h, 100 µM [10] was 133%.

With `COc1cc(CCCc2cc(OC)c(O)c(OC)c2)ccc1O` the “inhibition (INH)” value [1] was over 80%, the viability at 24 h, 50 µM [2] was 88.7% and the “fold change (FC)” value (RAW264.7 [3]) was 0.81. For the same compound, the IC50 at 24 h [5] was 16.4 µM, the inhibition at 10 µM [6] was 21.8% and the inhibition at 1 µM [7] was 27.2%. It also gave a viability at 24 h, 1 µM [8] of 98.4%, a viability at 24 h, 10 µM [9] of 98.7% and a viability at 24 h, 100 µM [10] of 82%.

With `Oc1cc(O)cc(CCc2ccc3c(c2)OCO3)c1` the “inhibition (INH)” value [1] was over 80%, the viability at 24 h, 50 µM [2] was 82.7% and the “fold change (FC)” value (RAW264.7 [3]) was 0.93. For the same compound, the inhibition (RAW264.7 [4]) was “Dose-dependent effect”, the IC50 at 24 h [5] was 14.5 µM and the inhibition at 10 µM [6] was 28.3%. It also gave an inhibition at 1 µM [7] of 17%, a viability at 24 h, 1 µM [8] of 96.8% and a viability at 24 h, 10 µM [9] of 90.8%. For the same compound, the viability at 24 h, 100 µM [10] was 78.9%.

With `Oc1cc(O)cc(CCCc2ccc3c(c2)OCO3)c1` the “inhibition (INH)” value [1] was over 80%, the viability at 24 h, 50 µM [2] was 86.7% and the “fold change (FC)” value (RAW264.7 [3]) was 0.74. For the same compound, the inhibition (RAW264.7 [4]) was “Dose-dependent effect”, the IC50 at 24 h [5] was 1.3 µM and the inhibition at 10 µM [6] was 53.6%. For the same compound, the inhibition at 1 µM [7] was 40.8%, the viability at 24 h, 1 µM [8] was 116% and the viability at 24 h, 10 µM [9] was 102%. It also gave a viability at 24 h, 100 µM [10] of 70.4%.

In the case of `COc1ccc(CCCc2ccc(O)c(O)c2OC)cc1OC`, the “inhibition (INH)” value [1] is reported as over 80%, the viability at 24 h, 50 µM [2] is reported as 86.3% and the “fold change (FC)” value (RAW264.7 [3]) is reported as 0.39. The inhibition (RAW264.7 [4]) was “Dose-dependent effect”, the IC50 at 24 h [5] was 1.84 µM and the inhibition at 10 µM [6] was 100%. It also gave an inhibition at 1 µM [7] of 36.9%, a viability at 24 h, 1 µM [8] of 118% and a viability at 24 h, 10 µM [9] of 103%. The viability at 24 h, 100 µM [10] was 61.9%.

For `COc1ccc(CCc2ccc(O)c(O)c2OC)cc1OC`, the “inhibition (INH)” value [1] was over 80%, the viability at 24 h, 50 µM [2] was 94.8% and the “fold change (FC)” value (RAW264.7 [3]) was 0.65. For the same compound, the inhibition (RAW264.7 [4]) was “Dose-dependent effect”, the IC50 at 24 h [5] was 2.98 µM and the inhibition at 10 µM [6] was 75.5%. For the same compound, the inhibition at 1 µM [7] was 24.3%, the viability at 24 h, 1 µM [8] was 106% and the viability at 24 h, 10 µM [9] was 99.9%. For the same compound, the viability at 24 h, 100 µM [10] was 81.9%.

With `COc1cc(CCc2cc(OC)c(OC)cc2O)ccc1O` the “inhibition (INH)” value [1] was over 80%, the viability at 24 h, 50 µM [2] was 128% and the “fold change (FC)” value (RAW264.7 [3]) was 1.12. The IC50 at 24 h [5] was 13.8 µM, the inhibition at 10 µM [6] was 29.5% and the inhibition at 1 µM [7] was 35.2%. For the same compound, the viability at 24 h, 1 µM [8] was 120%, the viability at 24 h, 10 µM [9] was 124% and the viability at 24 h, 100 µM [10] was 133%.

In the case of `COc1ccc(CCCc2ccc(O)c(O)c2O)cc1OC`, the “inhibition (INH)” value [1] is reported as over 80%, the viability at 24 h, 50 µM [2] is reported as 86.4% and the “fold change (FC)” value (RAW264.7 [3]) is reported as 0.71. For the same compound, the IC50 at 24 h [5] was 10.7 µM, the inhibition at 10 µM [6] was 28.6% and the inhibition at 1 µM [7] was 29.6%. For the same compound, the viability at 24 h, 1 µM [8] was 110%, the viability at 24 h, 10 µM [9] was 130% and the viability at 24 h, 100 µM [10] was 73.2%.

For `CNC(=N)NCCC[C@H](N)C(=O)O` [TILARGININE], the viability at 24 h, 50 µM [2] was 113%, the “fold change (FC)” value (RAW264.7 [3]) was 0.92 - 1.02 and the IC50 at 24 h [5] was 2.73 µM. For the same compound, the inhibition at 10 µM [6] was 90.1%, the inhibition at 1 µM [7] was 15% and the viability at 24 h, 1 µM [8] was 100%. It also gave a viability at 24 h, 10 µM [9] of 100% and a viability at 24 h, 100 µM [10] of 97.2%.

In the case of `COc1cc(CCCc2cc(OC)c(OC)cc2O)ccc1O`, the “inhibition (INH)” value [1] is reported as over 80%, the viability at 24 h, 50 µM [2] is reported as 88.4% and the “fold change (FC)” value (RAW264.7 [3]) is reported as 0.73. The inhibition (RAW264.7 [4]) was “Dose-dependent effect”, the IC50 at 24 h [5] was 4.46 µM and the inhibition at 10 µM [6] was 56.5%. The inhibition at 1 µM [7] was 38.2%, the viability at 24 h, 1 µM [8] was 135% and the viability at 24 h, 10 µM [9] was 113%. The viability at 24 h, 100 µM [10] was 80.9%.
